Experimental findings from ChEMBL document CHEMBL1134774, “Design, synthesis, and structure-activity relationships of a series of 3-[2-(1-benzylpiperidin-4-yl)ethylamino]pyridazine derivatives as acetylcholinesterase inhibitors” (J Med Chem, 2001) are described below.

The target of assay [1] is Acetylcholinesterase (Electrophorus electricus, UniProt O42275).
Description: In vitro inhibition of electric eel acetylcholinesterase
The target of assay [2] is Acetylcholinesterase (Homo sapiens, UniProt P22303).
Description: In vitro inhibition of acetylcholinesterase from human erythrocytes
The next assay deals with Cholinesterase (Homo sapiens, UniProt P06276).
Cholinesterase, sequence (P06276 whole entry): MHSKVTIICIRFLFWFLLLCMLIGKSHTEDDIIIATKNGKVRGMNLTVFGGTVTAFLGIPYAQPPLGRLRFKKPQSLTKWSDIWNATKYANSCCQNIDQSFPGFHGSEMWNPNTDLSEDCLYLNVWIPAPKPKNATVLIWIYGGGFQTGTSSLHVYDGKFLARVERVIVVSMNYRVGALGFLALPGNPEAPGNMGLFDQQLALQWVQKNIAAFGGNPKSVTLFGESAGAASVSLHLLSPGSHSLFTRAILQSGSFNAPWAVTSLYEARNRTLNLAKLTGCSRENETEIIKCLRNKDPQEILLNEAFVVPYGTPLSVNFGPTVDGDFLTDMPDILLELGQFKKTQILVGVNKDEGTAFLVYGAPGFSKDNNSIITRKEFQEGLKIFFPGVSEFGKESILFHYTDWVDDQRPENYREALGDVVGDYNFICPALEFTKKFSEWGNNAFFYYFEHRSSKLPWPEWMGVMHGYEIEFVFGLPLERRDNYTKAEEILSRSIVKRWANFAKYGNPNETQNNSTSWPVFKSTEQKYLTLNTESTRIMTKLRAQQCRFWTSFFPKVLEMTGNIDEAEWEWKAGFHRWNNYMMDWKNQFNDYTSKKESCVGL
The target of assay [3] is T1, Choline O-acetyltransferase (Rattus norvegicus) (UniProt P32738).
T1 sequence (whole entry): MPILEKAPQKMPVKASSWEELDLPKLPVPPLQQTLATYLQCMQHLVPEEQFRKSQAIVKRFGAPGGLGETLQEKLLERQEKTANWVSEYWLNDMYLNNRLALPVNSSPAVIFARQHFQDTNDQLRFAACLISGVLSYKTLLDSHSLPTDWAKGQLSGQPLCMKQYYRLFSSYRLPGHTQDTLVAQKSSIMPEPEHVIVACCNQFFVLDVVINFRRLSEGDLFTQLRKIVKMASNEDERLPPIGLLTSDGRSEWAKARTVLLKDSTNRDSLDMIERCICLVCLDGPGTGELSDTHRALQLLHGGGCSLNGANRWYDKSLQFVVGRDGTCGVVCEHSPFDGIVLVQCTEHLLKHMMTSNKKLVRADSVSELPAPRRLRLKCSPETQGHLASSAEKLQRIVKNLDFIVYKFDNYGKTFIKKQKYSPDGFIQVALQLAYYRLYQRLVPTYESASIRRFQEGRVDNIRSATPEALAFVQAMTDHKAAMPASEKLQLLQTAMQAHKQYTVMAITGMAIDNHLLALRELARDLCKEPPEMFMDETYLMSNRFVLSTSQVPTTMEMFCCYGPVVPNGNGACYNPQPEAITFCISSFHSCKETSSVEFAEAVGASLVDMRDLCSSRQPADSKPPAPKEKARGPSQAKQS
Nature of the assay: IC50 (hBuChE/hAChE) ratio of the compound.

SMILES strings stand for the structures.

Acetylcholinesterase (Homo sapiens, UniProt P22303), sequence (P22303 whole entry): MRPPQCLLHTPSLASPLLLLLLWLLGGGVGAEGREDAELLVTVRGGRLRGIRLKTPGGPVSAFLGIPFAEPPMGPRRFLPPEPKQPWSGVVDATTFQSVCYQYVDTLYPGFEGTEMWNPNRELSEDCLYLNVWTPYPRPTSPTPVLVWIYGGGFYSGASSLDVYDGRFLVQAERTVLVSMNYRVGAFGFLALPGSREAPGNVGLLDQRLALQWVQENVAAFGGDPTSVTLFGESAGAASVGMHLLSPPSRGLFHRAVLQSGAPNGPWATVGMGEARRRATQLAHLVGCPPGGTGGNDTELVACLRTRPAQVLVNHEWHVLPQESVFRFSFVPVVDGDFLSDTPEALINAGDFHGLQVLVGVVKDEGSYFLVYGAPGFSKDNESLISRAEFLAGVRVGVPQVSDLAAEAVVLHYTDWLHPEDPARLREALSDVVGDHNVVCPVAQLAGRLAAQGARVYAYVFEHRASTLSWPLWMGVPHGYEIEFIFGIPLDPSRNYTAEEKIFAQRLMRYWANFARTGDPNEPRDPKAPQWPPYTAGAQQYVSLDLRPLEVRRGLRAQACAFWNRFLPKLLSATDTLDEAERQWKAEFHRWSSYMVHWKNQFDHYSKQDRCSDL
Acetylcholinesterase (Electrophorus electricus, UniProt O42275), sequence (O42275 whole entry): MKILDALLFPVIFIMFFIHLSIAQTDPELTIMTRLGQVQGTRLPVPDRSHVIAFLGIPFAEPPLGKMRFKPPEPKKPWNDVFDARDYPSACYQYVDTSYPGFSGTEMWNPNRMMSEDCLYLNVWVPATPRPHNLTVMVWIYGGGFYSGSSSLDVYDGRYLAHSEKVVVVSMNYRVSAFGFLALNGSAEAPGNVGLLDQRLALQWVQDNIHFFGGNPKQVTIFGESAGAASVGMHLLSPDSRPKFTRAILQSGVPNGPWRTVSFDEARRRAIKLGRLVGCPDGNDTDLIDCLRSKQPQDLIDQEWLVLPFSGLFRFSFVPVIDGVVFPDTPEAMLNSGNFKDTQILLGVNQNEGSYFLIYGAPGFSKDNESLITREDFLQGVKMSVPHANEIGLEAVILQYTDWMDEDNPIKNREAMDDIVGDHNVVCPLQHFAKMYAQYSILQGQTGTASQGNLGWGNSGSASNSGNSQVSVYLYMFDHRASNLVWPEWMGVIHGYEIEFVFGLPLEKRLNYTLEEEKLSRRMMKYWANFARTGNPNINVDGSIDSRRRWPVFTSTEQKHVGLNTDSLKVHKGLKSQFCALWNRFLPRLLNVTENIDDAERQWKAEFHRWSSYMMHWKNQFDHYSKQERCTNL

`CC(C)c1cc(-c2ccccc2)nnc1NCCC1CCN(Cc2ccccc2)CC1`: at Acetylcholinesterase [1], half-maximal inhibition (IC50) required 430 nM.
In the case of `CCc1cc(=NCCC2CCN(Cc3ccccc3)CC2)[nH]nc1-c1ccccc1`, the results for the IC50 against Acetylcholinesterase [2], at Acetylcholinesterase [1] and on Cholinesterase were 66 nM, 27 nM and 920 nM, respectively. For the same molecule, the IC50 ratio in assay [3] was found to be 14.
In the case of `O=C(CN1CCC(Cc2ccccc2)CC1)Nc1ccc(-c2ccccc2)nn1`, on Acetylcholinesterase [1], the IC50 (usually the concentration that inhibits the measured activity by half) was 18000 nM.
With `c1ccc(CN2CCC(CCOc3ccc(-c4ccccc4)nn3)CC2)cc1`, the IC50 amounted to 710 nM at Acetylcholinesterase [2], 140000 nM at Acetylcholinesterase [1] and 1600 nM against Cholinesterase.
On to `c1ccc(CN2CCC(CCN=c3[nH]nc(-c4ccccc4)c4ccccc34)CC2)cc1`, for which half-maximal inhibition against Acetylcholinesterase [1] (IC50) required 440 nM.
Same read-out and setting: in the case of `FC(F)(F)c1cc(-c2ccc(NCCC3CCN(Cc4ccccc4)CC3)nn2)cc(C(F)(F)F)c1` it was 56 nM.
Take `c1ccc(CN2CCC(CCN=c3cc4c(n[nH]3)-c3ccccc3C4)CC2)cc1`: the IC50 against Acetylcholinesterase [2] stood at 74 nM; against Acetylcholinesterase [1], 10 nM; at Cholinesterase, 230 nM. Also, the IC50 ratio in assay [3] worked out at 3.1.
Take `Fc1ccc(-c2ccc(NCCC3CCN(Cc4ccccc4)CC3)nn2)cc1`: at Acetylcholinesterase [1], the IC50 was found to be 350 nM.
With `c1ccc(CN2CCC(CCNc3cc4ccc5ccccc5c4nn3)CC2)cc1`, the IC50 against Acetylcholinesterase [2] was 190 nM; at Acetylcholinesterase [1], 22 nM; against Cholinesterase it was 270 nM.
Consider `Cc1cc(=NCCC2CCN(Cc3ccccc3)CC2)[nH]nc1-c1ccccc1`, for which the IC50 at Acetylcholinesterase [2] was 39 nM; against Acetylcholinesterase [1], 21 nM; at Cholinesterase it was 940 nM. In addition, the IC50 ratio in assay [3] turned out to be 24.
For the molecule `O=C(CN1CCN(Cc2ccccc2)CC1)Nc1ccc(-c2ccccc2)nn1`, on Acetylcholinesterase [1], the IC50 turned out to be 17000 nM.
Molecule `Clc1ccccc1-c1ccc(NCCC2CCN(Cc3ccccc3)CC2)nn1` registered an IC50 against Acetylcholinesterase [1] of 80 nM.
On the same count and under the same terms, with `CC(=O)c1cccc(-c2ccc(NCCC3CCN(Cc4ccccc4)CC3)nn2)c1` the figure was 54 nM; with `c1ccc(CN2CCC(CCNc3ccc(-c4cccnc4)nn3)CC2)cc1`, 57 nM; with `Cc1cc(C)c(-c2ccc(NCCC3CCN(Cc4ccccc4)CC3)nn2)c(C)c1`, 3000 nM.
`Cc1ccccc1-c1ccc(NCCC2CCN(Cc3ccccc3)CC2)nn1`: the IC50 against Acetylcholinesterase [1] is 90 nM.
As to `c1ccc(CC2CCN(CCNc3ccc(-c4ccccc4)nn3)CC2)cc1`, the IC50 on Acetylcholinesterase [1] came to 24000 nM.
Regarding `CC(=O)Nc1cccc(-c2ccc(NCCC3CCN(Cc4ccccc4)CC3)nn2)c1`, the IC50 at Acetylcholinesterase [1] was determined as 58 nM.
Turning to `Clc1ccc(NCCC2CCN(Cc3ccccc3)CC2)nn1`, the IC50 against Acetylcholinesterase [1] came to 73 nM.
With `c1ccc(CN2CCC(CCNc3ccc(-c4ccccc4)nn3)CC2)cc1`, on Acetylcholinesterase [1], the IC50 turned out to be 120 nM. The IC50 ratio in assay [3] is 5.
As for `O=C(CNc1ccc(-c2ccccc2)nn1)N1CCC(Cc2ccccc2)CC1`, the IC50 on Acetylcholinesterase [1] was found to be 120000 nM.
`O=C(CNc1ccc(-c2ccccc2)nn1)N1CCN(Cc2ccccc2)CC1` yielded an IC50 at Acetylcholinesterase [1] of 15000 nM.
As for `N#Cc1ccc(-c2ccc(NCCC3CCN(Cc4ccccc4)CC3)nn2)cc1`, the IC50 at Acetylcholinesterase [1] was found to be 100 nM.
At Acetylcholinesterase [1], `c1ccc(CN2CCC(CCNc3cccnn3)CC2)cc1` registered a concentration for half-maximal inhibition (IC50) of 240 nM.
Regarding `c1ccc(CN2CCC(CCNc3cc4c(nn3)-c3ccccc3CC4)CC2)cc1`, the IC50 against Acetylcholinesterase [2] was 190 nM; against Acetylcholinesterase [1] it was 39 nM; on Cholinesterase, 280 nM. Also, in assay [3], the IC50 ratio was determined as 1.5.
The molecule `c1ccc(CN2CCC(CCNc3ccc(-c4cccs4)nn3)CC2)cc1` displayed a half-maximal inhibitory concentration (IC50) against Acetylcholinesterase [1] of 97 nM.
Take `c1ccc(CN2CCC(CCNc3cc4c(nn3)-c3ccccc3CCC4)CC2)cc1`: the IC50 against Acetylcholinesterase [2] was found to be 120 nM; against Acetylcholinesterase [1], 22 nM; against Cholinesterase, 510 nM.
On to `c1ccc(CN2CCC(CCSc3ccc(-c4ccccc4)nn3)CC2)cc1`, for which the 50% inhibitory concentration (IC50) against Acetylcholinesterase [2] worked out at 470 nM; against Acetylcholinesterase [1], 63000 nM; against Cholinesterase it was 480 nM.
For `CN(C)c1ccc(-c2ccc(NCCC3CCN(Cc4ccccc4)CC3)nn2)cc1`, half-maximal inhibition against Acetylcholinesterase [1] (IC50) was put at 210 nM.
Same read-out and setting: in the case of `O=C(CC1CCN(Cc2ccccc2)CC1)Nc1ccc(-c2ccccc2)nn1` it was 4200 nM; in that of `CCc1ccccc1-c1ccc(NCCC2CCN(Cc3ccccc3)CC2)nn1`, 87 nM; in that of `COc1ccc(NCCC2CCN(Cc3ccccc3)CC2)nn1`, 220 nM.
On to `COc1ccccc1-c1ccc(NCCC2CCN(Cc3ccccc3)CC2)nn1`, for which half-maximal inhibition against Acetylcholinesterase [1] (IC50) was put at 110 nM.
In turn, `Cc1cc(-c2ccccc2)nnc1NCCC1CCN(Cc2ccccc2)CC1` had an IC50 on Acetylcholinesterase [1] of 320 nM.
Regarding `c1ccc(CN2CCC(CCNc3ccc(-c4ccc5ccccc5c4)nn3)CC2)cc1`, the IC50 on Acetylcholinesterase [1] worked out at 56 nM.
`CCCc1cc(=NCCC2CCN(Cc3ccccc3)CC2)[nH]nc1-c1ccccc1` registered an IC50 against Acetylcholinesterase [1] of 61 nM.
